Source: patent publication US10238632B2, “Sigma receptor-binding agent” (FUJIFILM Toyama Chemical Co., Ltd., priority 2015, dated 2019)

Columns and labels:
β2 receptor = molecular target: T1, β2 receptor (Cavia porcellus, UniProt Q8K4Z4); test: Receptor binding assay, β2; conditions: guinea-pig lung, compound A at 10 μM, [3H] (−)CGP 12177 (+10 nM CGP 20712A) (0.4 nM), 40 min./22° C., read-out: Inhibition rate of compound A for radioligand (%)
T1 construct: guinea-pig lung; from tissue; host or cells: guinea-pig lung
Protocol: (§1) The compound A was tested for ability to bind to 21 types of receptors. […]
(§2) The inhibition rate of the compound A for each radioligand was calculated by the following equation. 100−([measured specific binding]/[control specific binding]×100) Equation: […]
(§3) In the equation, the measured specific binding indicates the amount of binding radioactivity of each radioligand under the presence of the compound A and the corresponding reference compound, and the control specific binding indicates the amount of binding radioactivity of each radioligand under the presence of the corresponding reference compound.

M2 (h) receptor = molecular target: T2, M2 (h) receptor (Homo sapiens, UniProt P08172); test: Receptor binding assay, M2 (h); conditions: human recombinant (CHO cells), compound A at 10 μM, [3H] AF-DX 384 (2 nM), 60 min./22° C.
T2 construct: expressed in transfected cells; host or cells: CHO cells
Protocol: as §1, §2, §3

[1] = test system: α2 (non-selective) receptor; test: Receptor binding assay, α2 (non-selective); conditions: rat cerebral cortex, compound A at 10 μM, [3H] RX 821002 (0.5 nM), 30 min./22° C.
Protocol: as §1, §2, §3

TRH receptor = test: Receptor binding assay, TRH; conditions: rat cerebral cortex, compound A at 10 μM, [3H] Me-TRH (2 nM), 6 h/4° C.
Protocol: as §1, §2, §3

H1 (h) receptor = molecular target: T3, H1 (h) receptor (Homo sapiens, UniProt P35367); test: Receptor binding assay, H1 (h); conditions: human recombinant (HEK-293 cells), compound A at 10 μM, [3H] pyrilamine (3 nM), 60 min./22° C., read-out: Inhibition rate of compound A for radioligand (%)
T3 construct: expressed in transfected cells; host or cells: HEK-293 cells
Protocol: as §1, §2, §3

D2 receptor = molecular target: T4, D2 receptor (Rattus norvegicus, UniProt P61169); test: Receptor binding assay, D2; conditions: rat striatum, compound A at 10 μM, [3H] YM-09151-2 (0.1 nM), 60 min./22° C.
T4 construct: rat striatum; from tissue; host or cells: rat striatum
Protocol: as §1, §2, §3

H2 receptor = molecular target: T5, H2 receptor (Cavia porcellus, UniProt P47747); test: Receptor binding assay, H2; conditions: guinea-pig striatum, compound A at 10 μM, [3H] APT (0.1 nM), 150 min/22° C., read-out: Inhibition rate of compound A for radioligand (%)
T5 construct: guinea-pig striatum; from tissue; host or cells: guinea-pig striatum
Protocol: as §1, §2, §3

M1 receptor = molecular target: T6, M1 receptor (Rattus norvegicus, UniProt P08482); test: Receptor binding assay, M1; conditions: rat cerebral cortex, compound A at 10 μM, [3H] pirenzepine (1 nM), 60 min./22° C., read-out: Inhibition rate of compound A for radioligand (%)
T6 construct: rat cerebral cortex; from tissue; host or cells: rat cerebral cortex
Protocol: as §1, §2, §3

[2] = test system: α1 (non-selective) receptor; test: Receptor binding assay, α1 (non-selective); conditions: rat cerebral cortex, compound A at 10 μM, [3H] prazosin (0.25 nM), 60 min./22° C
Protocol: as §1, §2, §3

GABAA receptor = test: Receptor binding assay, GABAA; conditions: rat cerebral cortex, compound A at 10 μM, [3H] muscimol (5 nM), 10 min./4° C.
Protocol: as §1, §2, §3

[3] = test system: N (neuronal) (α-BGTX-insensitive) receptor; test: Receptor binding assay, N (neuronal) (α-BGTX-insensitive); conditions: rat cerebral cortex, compound A at 10 μM, [3H] cytisine (1.5 nM), 75 min./4° C.
Protocol: as §1, §2, §3

[4] = test system: 5-HT (non-selective) receptor; test: Receptor binding assay, 5-HT (non-selective); conditions: rat cerebral cortex, compound A at 10 μM, [3H] serotonin (2 nM), 15 min./37° C.
Protocol: as §1, §2, §3

[5] = test system: σ (non-selective) receptor; test: Receptor binding assay, σ (non-selective); conditions: rat cerebral cortex, compound A at 10 μM, [3H] DTG (8 nM), 120 min./22° C.
Protocol: as §1, §2, §3

NMDA receptor = test: Receptor binding assay, NMDA; conditions: rat cerebral cortex, compound A at 10 μM, [3H] CGP 39653 (5 nM), 60 min./4° C.
Protocol: as §1, §2, §3

AT2 (h) receptor = molecular target: T7, AT2 (h) receptor (Homo sapiens, UniProt P50052); test: Receptor binding assay, AT2 (h); conditions: human recombinant (Hela cells), compound A at 10 μM, [3H] GCP 42112A (0.05 nM), 180 min./37° C., read-out: Inhibition rate of compound A for radioligand (%)
T7 construct: expressed in transfected cells; host or cells: Hela cells
Protocol: as §1, §2, §3

[6] = molecular target: T8, sigma-2 receptors expressed in Jurkat cells (Homo sapiens, UniProt Q5BJF2); test: Identification of sigma-2 receptor inhibition constant; assay type: binding; conditions: 25 nM [3H] DTG under the presence of 1 μM (+)-pentazocine, room temperature for 60 minutes, Cheng-Prusoff equation
T8 construct: In the sigma-2 receptors expressed in Jurkat cells; endogenous in cells; host or cells: Jurkat cells
Protocol: The sigma-2 receptor inhibition constant of the compound A (Ki value) was identified. The test was conducted by a method described below in accordance with Ganapathy, M. E. (1999).
DTG under the presence of 1 μM (+)-pentazocine. The reaction was conducted at room temperature for 60 minutes. The inhibition rate was calculated in the same manner as described in Test Example 1. The Ki value was identified in accordance with the Cheng-Prusoff equation by calculating IC50 based on nonlinear regression analysis.

GABAB receptor = molecular target: T9, GABAB receptor (Rattus norvegicus, UniProt Q9Z0U4); test: Receptor binding assay, GABAB; conditions: rat cerebral cortex, compound A at 10 μM, [3H] GABA (+40 μM isoguvacine) (10 nM), 10 min./22° C., read-out: Inhibition rate of compound A for radioligand (%)
T9 construct: rat cerebral cortex; from tissue; host or cells: rat cerebral cortex
Protocol: as §1, §2, §3

[7] = molecular target: T10, sigma-1 receptors expressed in Jurkat cells (Homo sapiens, UniProt Q99720); test: Identification of sigma-1 receptor inhibition constant; assay type: binding; conditions: 15 nM [3H] (+)-pentazocine, 37° C. for 120 minutes, Cheng-Prusoff equation
T10 construct: In the sigma-1 receptors expressed in Jurkat cells; endogenous in cells; host or cells: Jurkat cells
Protocol: The sigma-1 receptor inhibition constant of the compound A (Ki value) was identified. The test was conducted by a method described below in accordance with Ganapathy, M. E. (1999).
(+)-pentazocine. The reaction was conducted at 37° C. for 120 minutes. The inhibition rate was calculated in the same manner as described in Test Example 1. The Ki value was identified in accordance with the Cheng-Prusoff equation by calculating IC50 based on nonlinear regression analysis.

AT1 (h) receptor = molecular target: T11, AT1 (h) receptor (Homo sapiens, UniProt P30556); test: Receptor binding assay, AT1 (h); conditions: human recombinant (CHO cells), compound A at 10 μM, [125I] [Sar1, Ile5]-AT II (0.05 nM), 60 min./37° C., read-out: Inhibition rate of compound A for radioligand (%)
T11 construct: expressed in transfected cells; host or cells: CHO cells
Protocol: as §1, §2, §3

TH receptor = test: Receptor binding assay, TH; conditions: rat liver, compound A at 10 μM, [125I] T3 (0.1 nM), 18 h/4° C.
Protocol: as §1, §2, §3

BZD (central) receptor = test: Receptor binding assay, BZD (central); conditions: rat cerebral cortex, compound A at 10 μM, [3H] flunitrazepam (0.4 nM), 60 min./4° C.
Protocol: as §1, §2, §3

D1 receptor = molecular target: T12, D1 receptor (Rattus norvegicus, UniProt P18901); test: Receptor binding assay, D1; conditions: rat striatum, compound A at 10 μM, [3H] SCH 23390 (0.3 nM), 45 min./22° C.
T12 construct: rat striatum; from tissue; host or cells: rat striatum
Protocol: as §1, §2, §3

T11 sequence (P30556 whole entry): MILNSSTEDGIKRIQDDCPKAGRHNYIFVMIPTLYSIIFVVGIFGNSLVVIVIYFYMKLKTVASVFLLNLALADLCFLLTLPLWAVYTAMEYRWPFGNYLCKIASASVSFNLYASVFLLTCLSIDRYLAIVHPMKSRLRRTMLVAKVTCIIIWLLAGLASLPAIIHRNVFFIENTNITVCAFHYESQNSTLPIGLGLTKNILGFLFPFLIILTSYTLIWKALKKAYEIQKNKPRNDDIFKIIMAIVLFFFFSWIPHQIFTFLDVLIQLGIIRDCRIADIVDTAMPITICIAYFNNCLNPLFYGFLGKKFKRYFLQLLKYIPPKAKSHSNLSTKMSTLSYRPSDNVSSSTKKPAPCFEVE
T8 sequence (Q5BJF2 whole entry): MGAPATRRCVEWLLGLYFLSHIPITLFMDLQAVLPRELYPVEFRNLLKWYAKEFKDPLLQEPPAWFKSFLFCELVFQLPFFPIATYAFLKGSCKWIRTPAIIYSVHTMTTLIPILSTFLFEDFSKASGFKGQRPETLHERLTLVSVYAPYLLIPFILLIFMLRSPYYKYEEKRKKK
T5 sequence (P47747 whole entry): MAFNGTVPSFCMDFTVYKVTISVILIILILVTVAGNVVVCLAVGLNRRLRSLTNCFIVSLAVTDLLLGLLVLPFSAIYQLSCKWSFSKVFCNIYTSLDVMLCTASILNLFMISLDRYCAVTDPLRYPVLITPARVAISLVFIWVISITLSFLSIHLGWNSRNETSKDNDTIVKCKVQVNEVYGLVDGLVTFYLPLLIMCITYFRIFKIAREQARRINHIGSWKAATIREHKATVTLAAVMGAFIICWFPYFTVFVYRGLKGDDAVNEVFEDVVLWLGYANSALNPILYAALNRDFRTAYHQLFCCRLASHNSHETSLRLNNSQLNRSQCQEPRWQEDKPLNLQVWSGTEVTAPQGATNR
T10 sequence (Q99720 whole entry): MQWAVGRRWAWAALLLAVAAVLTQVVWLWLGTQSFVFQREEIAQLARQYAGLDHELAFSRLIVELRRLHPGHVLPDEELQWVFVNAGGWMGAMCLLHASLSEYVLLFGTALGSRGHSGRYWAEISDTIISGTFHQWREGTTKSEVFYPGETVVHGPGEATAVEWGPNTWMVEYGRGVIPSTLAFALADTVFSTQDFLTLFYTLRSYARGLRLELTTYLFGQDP
T6 sequence (P08482 whole entry): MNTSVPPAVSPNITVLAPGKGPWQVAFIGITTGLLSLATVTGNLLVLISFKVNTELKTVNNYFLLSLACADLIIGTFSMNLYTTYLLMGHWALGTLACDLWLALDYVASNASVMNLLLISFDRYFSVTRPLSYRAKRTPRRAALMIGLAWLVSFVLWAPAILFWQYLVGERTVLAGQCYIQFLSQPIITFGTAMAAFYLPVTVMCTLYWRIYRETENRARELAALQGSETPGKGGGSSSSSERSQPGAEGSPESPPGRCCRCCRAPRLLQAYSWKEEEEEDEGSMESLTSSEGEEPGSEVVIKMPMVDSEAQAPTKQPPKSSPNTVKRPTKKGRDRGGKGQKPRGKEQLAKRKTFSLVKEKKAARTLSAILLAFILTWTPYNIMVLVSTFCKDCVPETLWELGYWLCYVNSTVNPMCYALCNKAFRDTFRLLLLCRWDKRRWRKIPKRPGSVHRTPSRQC
T7 sequence (P50052 whole entry): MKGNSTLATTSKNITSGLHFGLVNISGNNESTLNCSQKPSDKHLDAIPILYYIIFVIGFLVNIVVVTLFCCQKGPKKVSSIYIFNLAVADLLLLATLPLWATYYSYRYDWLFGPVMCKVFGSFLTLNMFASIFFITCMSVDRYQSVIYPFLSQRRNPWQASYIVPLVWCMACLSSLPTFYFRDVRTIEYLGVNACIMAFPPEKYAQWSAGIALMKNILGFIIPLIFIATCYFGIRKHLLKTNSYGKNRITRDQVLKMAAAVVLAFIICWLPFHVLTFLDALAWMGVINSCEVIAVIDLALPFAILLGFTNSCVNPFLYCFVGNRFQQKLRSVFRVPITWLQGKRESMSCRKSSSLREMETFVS
T12 sequence (P18901 whole entry): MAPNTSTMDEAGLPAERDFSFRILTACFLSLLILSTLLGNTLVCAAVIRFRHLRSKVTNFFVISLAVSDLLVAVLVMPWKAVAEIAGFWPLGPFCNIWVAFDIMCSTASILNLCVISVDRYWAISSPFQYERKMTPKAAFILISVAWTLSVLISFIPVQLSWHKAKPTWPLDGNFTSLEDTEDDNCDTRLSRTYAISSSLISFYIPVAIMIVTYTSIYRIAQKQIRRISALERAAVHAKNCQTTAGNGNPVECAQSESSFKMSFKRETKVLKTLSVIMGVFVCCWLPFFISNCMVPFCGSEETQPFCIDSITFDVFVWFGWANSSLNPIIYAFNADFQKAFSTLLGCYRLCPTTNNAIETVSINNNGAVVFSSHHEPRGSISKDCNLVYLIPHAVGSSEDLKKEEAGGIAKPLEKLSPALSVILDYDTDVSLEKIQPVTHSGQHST
T4 sequence (P61169 whole entry): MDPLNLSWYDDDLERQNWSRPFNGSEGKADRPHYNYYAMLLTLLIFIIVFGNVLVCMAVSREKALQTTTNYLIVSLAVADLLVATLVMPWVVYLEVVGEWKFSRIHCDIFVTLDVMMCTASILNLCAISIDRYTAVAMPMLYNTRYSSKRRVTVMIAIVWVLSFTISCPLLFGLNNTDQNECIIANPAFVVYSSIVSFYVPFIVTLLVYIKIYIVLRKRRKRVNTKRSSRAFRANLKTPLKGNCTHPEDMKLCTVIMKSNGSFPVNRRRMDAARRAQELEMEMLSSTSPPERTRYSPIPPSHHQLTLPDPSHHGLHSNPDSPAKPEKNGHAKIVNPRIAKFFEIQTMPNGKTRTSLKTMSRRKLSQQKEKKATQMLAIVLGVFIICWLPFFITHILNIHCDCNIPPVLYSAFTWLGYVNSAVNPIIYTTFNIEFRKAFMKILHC
T9 sequence (Q9Z0U4 20-960): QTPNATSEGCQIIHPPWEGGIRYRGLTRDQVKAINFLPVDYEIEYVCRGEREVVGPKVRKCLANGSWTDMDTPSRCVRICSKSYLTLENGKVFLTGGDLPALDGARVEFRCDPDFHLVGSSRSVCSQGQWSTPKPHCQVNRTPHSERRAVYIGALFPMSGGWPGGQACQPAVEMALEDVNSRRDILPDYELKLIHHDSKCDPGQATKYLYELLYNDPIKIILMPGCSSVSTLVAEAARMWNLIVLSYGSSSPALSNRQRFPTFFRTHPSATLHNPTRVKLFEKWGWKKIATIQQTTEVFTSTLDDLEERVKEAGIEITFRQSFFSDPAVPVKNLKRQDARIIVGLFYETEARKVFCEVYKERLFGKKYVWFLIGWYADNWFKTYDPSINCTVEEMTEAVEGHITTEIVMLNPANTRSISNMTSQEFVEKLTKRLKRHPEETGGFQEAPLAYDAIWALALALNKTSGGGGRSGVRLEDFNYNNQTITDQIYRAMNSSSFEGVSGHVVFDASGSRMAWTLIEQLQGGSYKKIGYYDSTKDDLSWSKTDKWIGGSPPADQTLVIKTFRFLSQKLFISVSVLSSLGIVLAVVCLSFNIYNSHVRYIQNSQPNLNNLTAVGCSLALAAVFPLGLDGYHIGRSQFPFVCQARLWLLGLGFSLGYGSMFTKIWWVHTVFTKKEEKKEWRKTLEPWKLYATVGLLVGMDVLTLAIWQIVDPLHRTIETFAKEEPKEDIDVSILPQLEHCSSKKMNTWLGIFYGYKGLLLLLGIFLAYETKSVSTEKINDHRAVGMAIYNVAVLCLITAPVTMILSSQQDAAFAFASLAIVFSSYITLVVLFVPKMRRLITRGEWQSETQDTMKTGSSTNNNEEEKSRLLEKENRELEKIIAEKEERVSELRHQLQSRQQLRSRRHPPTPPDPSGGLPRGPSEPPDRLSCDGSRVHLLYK
T9 sequence (O88871 41-940 partner): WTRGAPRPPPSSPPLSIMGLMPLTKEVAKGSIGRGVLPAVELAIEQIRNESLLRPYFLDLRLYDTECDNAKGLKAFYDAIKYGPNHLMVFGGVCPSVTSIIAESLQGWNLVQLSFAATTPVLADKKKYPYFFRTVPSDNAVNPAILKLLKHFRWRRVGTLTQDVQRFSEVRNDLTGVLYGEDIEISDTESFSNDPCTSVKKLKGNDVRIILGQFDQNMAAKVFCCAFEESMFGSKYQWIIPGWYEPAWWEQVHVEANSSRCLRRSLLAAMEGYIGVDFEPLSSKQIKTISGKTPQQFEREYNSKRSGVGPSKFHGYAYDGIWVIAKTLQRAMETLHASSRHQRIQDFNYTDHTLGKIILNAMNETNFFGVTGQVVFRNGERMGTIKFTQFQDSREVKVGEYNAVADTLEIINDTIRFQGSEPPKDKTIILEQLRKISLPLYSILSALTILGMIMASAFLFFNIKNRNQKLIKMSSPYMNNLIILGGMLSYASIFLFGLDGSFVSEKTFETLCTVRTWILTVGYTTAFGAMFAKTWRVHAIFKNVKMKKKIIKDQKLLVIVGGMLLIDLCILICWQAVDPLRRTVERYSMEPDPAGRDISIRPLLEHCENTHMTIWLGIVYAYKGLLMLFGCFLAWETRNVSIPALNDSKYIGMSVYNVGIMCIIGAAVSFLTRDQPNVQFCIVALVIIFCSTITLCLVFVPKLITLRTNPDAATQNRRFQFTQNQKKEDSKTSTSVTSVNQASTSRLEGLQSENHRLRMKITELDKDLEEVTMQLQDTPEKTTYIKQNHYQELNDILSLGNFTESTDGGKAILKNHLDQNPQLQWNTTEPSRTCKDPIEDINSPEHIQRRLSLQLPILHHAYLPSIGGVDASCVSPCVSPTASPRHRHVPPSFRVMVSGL

O=C(O)/C=C\C(=O)O.OC1CN(CCCOCCc2ccc3sccc3c2)C1 [compound A, 1-(3-(2-(1-benzothiophene-5-yl)ethoxy)propyl)azetidine-3-ol maleate]
inhibition at 10 µM (β2 receptor): 5%
Inhibition rate of compound A for radioligand (%) (M2 (h) receptor): 19%
Inhibition rate of compound A for radioligand (%) [1]: 40%
Inhibition rate of compound A for radioligand (%) (TRH receptor): 1%
inhibition at 10 µM (H1 (h) receptor): -15%
Inhibition rate of compound A for radioligand (%) (D2 receptor): 21%
inhibition at 10 µM (H2 receptor): 72%
inhibition at 10 µM (M1 receptor): 43%
Inhibition rate of compound A for radioligand (%) [2]: 36%
Inhibition rate of compound A for radioligand (%) (GABAA receptor): −8%
Inhibition rate of compound A for radioligand (%) [3]: 12%
Inhibition rate of compound A for radioligand (%) [4]: 2%
Inhibition rate of compound A for radioligand (%) [5]: 99%
Inhibition rate of compound A for radioligand (%) (NMDA receptor): 16%
inhibition at 10 µM (AT2 (h) receptor): -13%
Ki [6]: 160 nM
inhibition at 10 µM (GABAB receptor): 4%
Ki [7]: 16 nM
inhibition at 10 µM (AT1 (h) receptor): -2%
Inhibition rate of compound A for radioligand (%) (TH receptor): −5%
Inhibition rate of compound A for radioligand (%) (BZD (central) receptor): 25%
Inhibition rate of compound A for radioligand (%) (D1 receptor): 1%
